Data set [1] has as its system pseudovirus of the SARS-COV-2 prototype.
The conditions of data set [2]: during purification process of solid-phase synthesis.

As a reminder, the EC50 is the concentration needed to bring the measured effect to its halfway point. The low end stands for a more potent agent, the high end for a less potent agent.

In data set [1], `CC[C@H](C)[C@H](NC(=O)CNC(=O)[C@H](CO)NC(=O)[C@@H](NC(=O)[C@H](CC(=O)O)NC(=O)CNC(=O)[C@H](Cc1ccccc1)NC(=O)[C@H](CCCCN)NC(=O)[C@@H](N)C(C)C)[C@@H](C)CC)C(=O)N[C@@H](CC(N)=O)C(=O)N[C@@H](C)C(=O)N[C@@H](CO)C(=O)N[C@H](C(=O)N[C@H](C(=O)N[C@@H](CC(N)=O)C(=O)N[C@H](C(=O)N[C@@H](CCCCN)C(=O)N[C@@H](CCC(=O)O)C(=O)N[C@@H](CCC(=O)O)C(=O)N[C@H](C(=O)N[C@@H](CC(=O)O)C(=O)N[C@@H](CCCNC(=N)N)C(=O)N[C@@H](CC(C)C)C(=O)N[C@@H](Cc1ccc(O)cc1)C(=O)N[C@@H](CCC(=O)O)C(=O)N[C@H](C(=O)N[C@H](C(=O)N[C@@H](CCCCN)C(=O)N[C@@H](CC(N)=O)C(=O)N[C@@H](CC(C)C)C(=O)N[C@@H](CC(N)=O)C(=O)N[C@@H](CCC(=O)O)C(=O)N[C@@H](CO)C(=O)N[C@@H](CC(C)C)C(=O)N[C@H](C(=O)N[C@@H](CC(=O)O)C(=O)N[C@@H](CC(C)C)C(=O)N[C@@H](CCC(N)=O)C(=O)N[C@@H](CCC(=O)O)C(=O)N[C@@H](CC(C)C)C(=O)O)[C@@H](C)CC)C(C)C)C(C)C)[C@@H](C)CC)[C@@H](C)CC)C(C)C)C(C)C` [P3-3] showed an EC50 of 501 nM.

Regarding “DLGDISGINASVVNIQKEIDRLNEVAKNLNESLIDLQELGSGSGC(CH2CONH(PEG)4CH2COOChol)-NH2 [P3-2-GS-PEG-Chol-1]”, the stability result in data set [2] is “poor stability”.

Regarding “DLGDISGINASVVNIQKEIDRLNEVAKNLNESLIDLQELGSGSGC(CH2COOChol)-NH2 [P3-2-GS-Chol-1]”, the stability result in data set [2] is on record as “poor stability”.

The values are drawn from patent US20240398893A1, “ANTI-CORONAVIRUS POLYPEPTIDE AS WELL AS DERIVATIVE AND APPLICATION THEREOF” (priority 2021, published 2024).
